Common to all, as to assay type: biochemical
One assay has as its target CDK1/Cyclin B1 (Homo sapiens (Human), UniProt P06493). Put plainly: CDK1/Cyclin B1 ADP-Glo Kinase Assay. As to the method:
CDK1/Cyclin B1 ADP-Glo Kinase Assay
(§1) The purpose of CDK1/Cyclin Bi assay is to evaluate the inhibition (% inhibition and IC50 values) of small molecule inhibitors by using a Luminescent based ADP-Glo assay. CDK1/Cyclin B1 catalyzes the production of ADP from ATP. ADP-Glo assay monitors ADP producing biochemical reactions. ADP-Glo is performed in 2 steps upon completion of kinase reaction: a combined termination of kinase reaction and depletion of remaining ATP in the first step, and conversion of generated ADP to ATP and the newly produced ATP to light output using luciferase/luciferin reaction in the second step. The luminescent signal generated is proportional to the ADP concentration produced and is correlated with the kinase activity. CDK1/Cyclin B1 was purchased from Carna (Cat 04-102). […] The assay was initiated with the addition of ATP-containing substrate solution, following a 30-minute pre-incubation of enzyme and inhibitor at room temperature in the reaction mixture. The reaction was stopped after 90 minutes at room temperature by the addition of 10 μL of ADP-GLO Reagent. After a 90 minute incubation, 20 μL of Kinase Detection Reagent was added. Samples were incubated for 40 minutes, after which plate well luminescence was measured on a Envision microplate reader. The IC50 determinations were made from a plot of the fractional velocity as a function of inhibitor concentration fit to the 4 parameters IC50 equation.

The next assay deals with CDK6/Cyclin D3 (Homo sapiens (Human), UniProt Q00534). In words: CDK6/Cyclin D3 ADP-Glo Kinase Assay. The conditions noted are these: read-out: CDK6/CyclinD3 IC50. How it is done:
CDK6/Cyclin D3 ADP-Glo Kinase Assay
as §1, with “of the CDK6/Cyclin D3” for “of CDK1/Cyclin Bi”, “values) in the presence” for “values)”, “assay. CDK6/Cyclin D3” for “assay. CDK1/Cyclin B1”, “activity. CDK6/Cychin D3” for “activity. CDK1/Cyclin B1”, “from Carna.” for “from Carna (Cat 04-102).”, “a 90-minute” for “a 90 minute”

A further assay has as its target CDK4/Cyclin D1 (Homo sapiens (Human), UniProt P11802). Put plainly: CDK4/Cyclin D1 CHEF Assay. Conditions: AQT; read-out: CDK4/CyclinD1 AQT IC50. An excerpt:
CDK4/Cyclin D1 CHEF Assay
The purpose of CDK4/Cyclin Dl assay is to evaluate the inhibition (% inhibition and IC50 values) of small molecule inhibitors by using a Chelation-Enhance Fluorescence (CHEF) assay. In a CHEF assay, phosphorylation of a peptide substrate results in proportional increase in fluorescence. CHEF kinase assay use peptide substrates containing a synthetic alpha-amino acid with a side chain bearing an 8-hydroxyquinoline derivative (sulfonamido-oxide, Sox). Upon phosphorylation of a nearby serine, threonine or tyrosine and in the presence of Mg(II), the spectral properties of the Sox residue are altered, emitting 485 nm wavelength light when excited with a 360 nm wavelength light source. CDK4/Cyclin D1 catalyzes the phosphoryl transfer to the SOX-labeled substrate peptide AQT0258 from Assayquant Technologies. […] The reaction was initiated with the addition of substrate solution, following a 30-minute pre-incubation of enzyme and inhibitor at 22° C. in the reaction mix. Reactions were allowed to proceed for 3 hrs at 22° C., followed by fluorescence read of the reaction. The IC50 determinations were made from a plot of the fractional velocity as a function of inhibitor concentration fit to the 4 parameters IC50 equation.

This note sets out measurements from patent US20250235456A1, “METHODS OF USE FOR AZA-QUINAZOLINE COMPOUNDS” (Iambic Therapeutics, Inc., priority 2024, published 2025).

CDK6/Cyclin D3, sequence (Q00534 whole entry): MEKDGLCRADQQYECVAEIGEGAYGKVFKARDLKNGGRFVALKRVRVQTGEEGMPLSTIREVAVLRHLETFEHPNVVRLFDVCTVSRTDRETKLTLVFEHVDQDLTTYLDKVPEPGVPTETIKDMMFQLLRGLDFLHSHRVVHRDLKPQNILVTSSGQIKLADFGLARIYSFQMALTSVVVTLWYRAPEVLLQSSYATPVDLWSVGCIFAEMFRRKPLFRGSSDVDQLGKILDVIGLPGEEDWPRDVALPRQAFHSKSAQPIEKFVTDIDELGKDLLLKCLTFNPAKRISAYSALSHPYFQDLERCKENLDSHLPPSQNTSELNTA
CDK6/Cyclin D3, sequence (P30281 whole entry partner): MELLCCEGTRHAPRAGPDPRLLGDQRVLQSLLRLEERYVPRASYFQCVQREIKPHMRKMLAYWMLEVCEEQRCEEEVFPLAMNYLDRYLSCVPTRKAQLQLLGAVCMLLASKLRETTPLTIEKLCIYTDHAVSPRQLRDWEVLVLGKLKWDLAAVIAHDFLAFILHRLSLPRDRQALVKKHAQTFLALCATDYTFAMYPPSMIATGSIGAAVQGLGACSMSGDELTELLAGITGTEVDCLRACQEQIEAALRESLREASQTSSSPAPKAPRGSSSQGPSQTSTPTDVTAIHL
CDK1/Cyclin B1, sequence (P06493 whole entry): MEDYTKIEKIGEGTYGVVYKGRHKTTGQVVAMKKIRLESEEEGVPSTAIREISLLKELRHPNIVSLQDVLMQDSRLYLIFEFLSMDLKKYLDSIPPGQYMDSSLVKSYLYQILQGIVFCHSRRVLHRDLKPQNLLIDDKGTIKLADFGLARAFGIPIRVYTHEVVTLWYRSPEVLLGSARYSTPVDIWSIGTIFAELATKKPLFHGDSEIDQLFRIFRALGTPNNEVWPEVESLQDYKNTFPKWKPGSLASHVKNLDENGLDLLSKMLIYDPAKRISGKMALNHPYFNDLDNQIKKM
CDK1/Cyclin B1, sequence (P14635 whole entry partner): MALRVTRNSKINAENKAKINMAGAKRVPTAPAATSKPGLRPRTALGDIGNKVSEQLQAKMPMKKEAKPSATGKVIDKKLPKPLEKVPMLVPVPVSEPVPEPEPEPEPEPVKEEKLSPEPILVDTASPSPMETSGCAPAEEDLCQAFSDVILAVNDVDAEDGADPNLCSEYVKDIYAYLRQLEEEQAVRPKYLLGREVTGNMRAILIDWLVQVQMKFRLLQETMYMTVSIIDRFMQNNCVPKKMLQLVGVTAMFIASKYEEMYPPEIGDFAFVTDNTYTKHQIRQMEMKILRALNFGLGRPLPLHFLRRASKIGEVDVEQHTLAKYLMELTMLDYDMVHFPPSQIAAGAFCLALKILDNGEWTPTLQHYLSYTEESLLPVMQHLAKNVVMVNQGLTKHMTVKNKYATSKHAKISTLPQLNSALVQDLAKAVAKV
CDK4/Cyclin D1, sequence (P11802 whole entry, species assumed): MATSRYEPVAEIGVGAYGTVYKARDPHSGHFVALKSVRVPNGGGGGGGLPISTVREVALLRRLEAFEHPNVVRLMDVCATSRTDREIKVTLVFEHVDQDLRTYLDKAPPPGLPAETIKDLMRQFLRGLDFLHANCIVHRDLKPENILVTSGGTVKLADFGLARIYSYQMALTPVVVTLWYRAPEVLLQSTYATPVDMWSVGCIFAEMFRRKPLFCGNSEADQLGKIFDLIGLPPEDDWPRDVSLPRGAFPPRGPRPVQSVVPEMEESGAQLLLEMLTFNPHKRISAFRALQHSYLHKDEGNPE
CDK4/Cyclin D1, sequence (P24385 whole entry partner, species assumed): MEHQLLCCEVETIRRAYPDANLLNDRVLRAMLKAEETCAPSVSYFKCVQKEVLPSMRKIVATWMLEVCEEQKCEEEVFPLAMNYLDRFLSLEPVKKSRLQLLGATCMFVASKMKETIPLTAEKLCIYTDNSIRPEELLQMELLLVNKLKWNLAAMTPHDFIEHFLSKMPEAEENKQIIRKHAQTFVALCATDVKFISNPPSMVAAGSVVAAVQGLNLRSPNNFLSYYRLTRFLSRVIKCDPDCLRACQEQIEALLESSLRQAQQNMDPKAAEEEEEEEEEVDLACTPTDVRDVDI

In the case of `[2H]C([2H])([2H])N1CC2(CN(c3nc(C)cc4cnc(NC5CCN(S(=O)(=O)C6CC6)CC5)nc34)CC2(F)F)C1` [Compound 13, N-(1-(cyclopropylsulfonyl)piperidin-4-yl)-8-(8,8-difluoro-2-(methyl-d3)-2,6-diazaspiro[3.4]octan-6-yl)-6-methylpyrido[3,4-d]pyrimidin-2-amine], on CDK1/Cyclin B1, the IC50 is under 200 nM. In the case of `CN1C[C@@H]2[C@H](C1)[C@H]2Nc1ncc2ccnc(N3CCC4(CCN(S(C)(=O)=O)C4)C3)c2n1` (stereo partly drawn) [Compound 15, N-((1R,5S,6s)-3-methyl-3-azabicyclo[3.1.0]hexan-6-yl)-8-(7-(methylsulfonyl)-2,7-diazaspiro[4.4]nonan-2-yl) pyrido[3,4-d]pyrimidin-2-amine], the IC50 at CDK1/Cyclin B1 and at CDK6/Cyclin D3 was over 2000 nM in each case. For the molecule `CS(=O)(=O)N1CCC(Nc2ncc3ccnc(N4CC5(CCCC5)c5c(F)cccc54)c3n2)CC1` [Compound 19, 8-(4′-fluorospiro [cyclopentane-1,3′-indolin]-1′-yl)-N-(1-(methylsulfonyl)piperidin-4-yl)pyrido[3,4-d]pyrimidin-2-amine], the IC50 at CDK1/Cyclin B1 and on CDK6/Cyclin D3 was over 2000 nM throughout.

In the case of `CN1Cc2ccc(Nc3ncc4ccnc(N5CCC6(CCN(S(C)(=O)=O)C6)C5)c4n3)cc2C1` (stereo not drawn) [Compound 23, N-(2-methylisoindolin-5-yl)-8-(7-(methylsulfonyl)-2,7-diazaspiro[4.4]nonan-2-yl) pyrido[3,4-d]pyrimidin-2-amine], the IC50 on CDK4/Cyclin D1 and on CDK6/Cyclin D3 was under 200 nM throughout.

For the molecule `CN1Cc2ccc(Nc3ncc4ccnc(N5CC6(C5)CS(=O)(=O)C6)c4n3)cc2C1` [Compound 24, 6-(2-((2-methylisoindolin-5-yl)amino)pyrido [3,4-d]pyrimidin-8-yl)-2-thia-6-azaspiro[3.3] heptane2,2-dioxide], the IC50 on CDK4/Cyclin D1 and at CDK6/Cyclin D3 was under 200 nM in each case. For `Cc1cc2cnc(Nc3ccc(N4CC5(CN(C)C5)C4)cc3)nc2c(N2CCC(C#N)(C3CC3)C2)n1` (stereo not drawn) [Compound 28, 3-cyclopropyl-1-(6-methyl-2-((4-(6-methyl-2,6-diazaspiro[3.3]heptan-2-yl)phenyl)amino)pyrido[3,4-d]pyrimidin-8-yl)pyrrolidine-3-carbonitrile], the IC50 on CDK4/Cyclin D1 and on CDK6/Cyclin D3 was under 200 nM throughout.

`Cc1cc2cnc(Nc3cnn(C4CN(CC#N)C4)c3)nc2c(N2CC3(CN(C)C3)C2)n1` [Compound 31, 2-(3-(4-((6-methyl-8-(6-methyl-2,6-diazaspiro[3.3]heptan-2-yl)pyrido[3,4-d]pyrimidin-2-yl)amino)-1H-pyrazol-1-yl)azetidin-1-yl)acetonitrile]: the IC50 on CDK1/Cyclin B1 was over 2000 nM.

Consider `Cc1cc2cnc(NC3CCN(S(=O)(=O)C4CC4)CC3)nc2c(N2CC3(CNC3)C2)n1` [Compound 32, N-(1-(cyclopropylsulfonyl)piperidin-4-yl)-6-methyl-8-(2,6-diazaspiro[3.3]heptan-2-yl) pyrido[3,4-d]pyrimidin-2-amine], for which the IC50 on CDK4/Cyclin D1 and on CDK6/Cyclin D3 was under 200 nM throughout. On to `Cc1cc2cnc(Nc3ccc(N4CC5(CN(C)C5)C4)cc3)nc2c(N2CCC3(C2)CC3(F)F)n1` (stereo not drawn) [Compound 34, 8-(1,1-difluoro-5-azaspiro[2.4]heptan-5-yl)-6-methyl-N-(4-(6-methyl-2,6-diazaspiro[3.3]heptan-2-yl)phenyl)pyrido [3,4-d]pyrimidin-2-amine], for which the IC50 at CDK4/Cyclin D1 and at CDK6/Cyclin D3 was under 200 nM throughout. With `Cc1cc2cnc(Nc3cnn(CC4(N(C)C)CC4)c3)nc2c(N2CCC(C#N)(C3CC3)C2)n1` (stereo not drawn) [Compound 38, 3-cyclopropyl-1-(2-((1-((1-(dimethylamino)cyclopropyl)methyl)-1H-pyrazol-4-yl)amino)-6-methylpyrido[3,4-d]pyrimidin-8-yl)pyrrolidine-3-carbonitrile], the IC50 against CDK1/Cyclin B1 and on CDK6/Cyclin D3 was over 2000 nM in each case. At CDK1/Cyclin B1, `Cc1cc2cnc(NC3CCN(S(C)(=O)=O)CC3)nc2c(N2CCC3(C2)CC3(F)F)n1` (stereo not drawn) [Compound 41, 8-(1,1-difluoro-5-azaspiro[2.4]heptan-5-yl)-6-methyl-N-(1-(methylsulfonyl)piperidin-4-yl)pyrido[3,4-d]pyrimidin-2-amine] gave an IC50 of under 200 nM.

Consider `Cc1cc2cnc(Nc3ccc4c(c3)CN(C3CC3)C4)nc2c(N2CC3(CCNC3)C2)n1` [Compound 47], for which the IC50 at CDK4/Cyclin D1 and at CDK6/Cyclin D3 was under 200 nM each time. `Cc1cc2cnc(NC3CCN(S(=O)(=O)C4CC4)CC3)nc2c(N2CC3(CCN(C)C3)C2)n1` [Compound 49, N-(1-(cyclopropylsulfonyl)piperidin-4-yl)-6-methyl-8-(6-methyl-2,6-diazaspiro[3.4]octan-2-yl)pyrido[3,4-d]pyrimidin-2-amine]: the IC50 was under 200 nM on CDK4/Cyclin D1 and 200 to 500 nM at CDK6/Cyclin D3. Regarding `FC(F)c1cc2cnc(Nc3ccc4c(c3)CN(C3CC3)C4)nc2c(N2CC3(CCNC3)C2)n1` [Compound 50, N-(2-cyclopropylisoindolin-5-yl)-6-(difluoromethyl)-8-(2,6-diazaspiro[3.4]octan-2-yl)pyrido[3,4-d]pyrimidin-2-amine], the IC50 at CDK4/Cyclin D1 and at CDK6/Cyclin D3 was under 200 nM throughout.

Consider `Cc1cc2cnc(NC3CCN(S(=O)(=O)CC4CCCC4)CC3)nc2c(N2CC3(CCNC3)C2)n1` [Compound 51, N-(1-((cyclopentylmethyl)sulfonyl)piperidin-4-yl)-6-methyl-8-(2,6-diazaspiro[3.4]octan-2-yl)pyrido[3,4-d]pyrimidin-2-amine], for which the figures for the IC50 at CDK4/Cyclin D1 and at CDK6/Cyclin D3 were under 200 nM and 200 to 500 nM, respectively. For `COCCN1CC2(C1)CN(c1nc(C3CC3)cc3cnc(NC4CCN(S(=O)(=O)CC5CCC5)CC4)nc13)C2` [Compound 64, N-(1-((cyclobutylmethyl)sulfonyl)piperidin-4-yl)-6-cyclopropyl-8-(6-(2-methoxyethyl)-2,6-diazaspiro[3.3]heptan-2-yl)pyrido [3,4-d]pyrimidin-2-amine], the results for the IC50 at CDK4/Cyclin D1 and on CDK6/Cyclin D3 were under 200 nM and 200 to 500 nM, respectively.

In turn, `CS(=O)(=O)N1CCC(Nc2ncc3cc(C4CC4)nc(C4CC5(CNCCO5)C4)c3n2)CC1` (stereo not drawn) [Compound 70, 6-cyclopropyl-N-(1-(methylsulfonyl)piperidin-4-yl)-8-(5-oxa-8-azaspiro[3.5]nonan-2-yl)pyrido[3,4-d]pyrimidin-2-amine] came in with an IC50 against CDK1/Cyclin B1 of under 200 nM. `Cc1cc2cnc(NC3CCN(S(C)(=O)=O)CC3)nc2c(C2CC3(CNCC3(F)F)C2)n1` (stereo not drawn) [Compound 99, 8-(8,8-difluoro-6-azaspiro[3.4]octan-2-yl)-6-methyl-N-(1-(methylsulfonyl)piperidin-4-yl)pyrido[3,4-d]pyrimidin-2-amine] yielded an IC50 at CDK1/Cyclin B1 of under 200 nM. On to `[2H]C([2H])([2H])N1CC2(CN(c3nc(C)cc4cnc(NC5CCN(S(=O)(=O)c6cnn(C)c6)CC5)nc34)CC2(F)F)C1` [Example 11, 8-(8,8-difluoro-2-(methyl-d3)-2,6-diazaspiro[3.4]octan-6-yl)-6-methyl-N-(1-((1-methyl-1H-pyrazol-4-yl)sulfonyl)piperidin-4-yl)pyrido[3,4-d]pyrimidin-2-amine], for which the IC50 against CDK1/Cyclin B1 was under 200 nM. The molecule `[2H]C([2H])([2H])N1CC2(CN(c3nc(C)cc4cnc(NC5CCN(S(C)(=O)=O)CC5)nc34)CC2(F)F)C1` [Example 12, 8-(8,8-difluoro-2-(methyl-d3)-2,6-diazaspiro[3.4]octan-6-yl)-6-methyl-N-(1-(methylsulfonyl)piperidin-4-yl)pyrido[3,4-d]pyrimidin-2-amine] showed an IC50 against CDK1/Cyclin B1 of under 200 nM.
